{"source": "patent US20240376143A1", "about": "“SELECTION INHIBITION OF DNA POLYMERASE BETA BY A COVALENT INHIBITOR” (The Johns Hopkins University, priority 2021, published 2024)", "key": {"DNA polymerase β (Pol β)": {"target": "DNA polymerase β (Pol β) (Homo sapiens, UniProt P06746)", "settings": "30 min preincubation; Paul et al.; cited from earlier work"}, "Pol η": {"target": "T1, Pol η (Homo sapiens, UniProt Q9Y253)", "T1 construct": "purchased EnzyMax", "T1 sequence (Q9Y253 1-713)": "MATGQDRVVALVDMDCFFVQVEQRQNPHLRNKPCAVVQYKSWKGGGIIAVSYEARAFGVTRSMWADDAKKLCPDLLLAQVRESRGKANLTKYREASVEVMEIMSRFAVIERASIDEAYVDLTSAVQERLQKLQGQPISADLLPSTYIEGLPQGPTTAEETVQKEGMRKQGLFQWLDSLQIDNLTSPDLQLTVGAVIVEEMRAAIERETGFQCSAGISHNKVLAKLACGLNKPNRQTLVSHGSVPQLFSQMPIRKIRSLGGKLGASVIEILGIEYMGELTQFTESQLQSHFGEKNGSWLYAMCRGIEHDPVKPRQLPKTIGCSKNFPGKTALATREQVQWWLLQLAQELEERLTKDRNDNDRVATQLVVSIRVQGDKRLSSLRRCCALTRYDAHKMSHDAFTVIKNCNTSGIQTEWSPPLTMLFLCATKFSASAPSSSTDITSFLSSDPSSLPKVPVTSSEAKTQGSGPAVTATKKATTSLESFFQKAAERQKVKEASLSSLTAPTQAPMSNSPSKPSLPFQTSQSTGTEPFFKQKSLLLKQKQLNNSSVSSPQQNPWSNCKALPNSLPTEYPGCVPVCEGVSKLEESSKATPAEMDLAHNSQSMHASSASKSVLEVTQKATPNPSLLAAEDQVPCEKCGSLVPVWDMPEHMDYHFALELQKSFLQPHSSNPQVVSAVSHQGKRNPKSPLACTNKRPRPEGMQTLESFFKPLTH", "assay": "primer extension assay (Pol η)", "assay_type": "biochemical", "settings": "10 μM", "experimental": "(§1) A 10× working solution of 14 (5 or 100 μM) was prepared in 1:1 MeCN/H2O. A 10× preincubation mixture was prepared by mixing a 50× working solution of polymerase (250 nM) with an aliquot of the inhibitor (5 or 100 μM, 10×) in 1× reaction buffer (50 mM Tris·HCl, 50 mM NaCl, 5 mM MgCl2, 5 mM DTT, 0.1 mg/mL BSA, 10% glycerol, pH 7.5) (see Table 19 for volumes). The concentration of the preincubation mixture was 50 nM polymerase (10×) and 0, 0.5 or 10 μM 14 (1×).\n(§2) The samples containing 50 nM polymerase and 14 (0, 0.5, or 10 μM) were preincubated at 25° C. for 20 min. After preincubation, an aliquot (2 μL, pol η or 3 μL, pol λ) was diluted with 10× ternary complex (pol η: 2 μL, 500 nM D4 or pol λ: 3 μL, 100 nM TC5), 10× dNTPs (5 mM; 2 μL, pol η or 3 μL, pol λ), and 1× reaction buffer (14 μL., pol η or 21 μL, pol λ) (see Table 20 for volumes). While the samples were incubated at 37° C., aliquots (pol η: 0, 2, 5, 10, 15, 20 min, 3 μL or pol λ: 0, 5, 15, 20, 30 min, 5 μL) were removed and quenched by the addition of 95% formamide, 20 mM EDTA loading buffer (10 μL). Aliquots were heated at 95° C. for 5 min, spun down, and loaded onto a 20% denaturing PAGE and run for 4 h at 55 watts. The gel was exposed in a radiography cassette, which was scanned using a Phosphorimager."}, "Pol λ": {"target": "T2, Pol λ (Homo sapiens, UniProt Q9UGP5)", "T2 sequence (Q9UGP5 1-575)": "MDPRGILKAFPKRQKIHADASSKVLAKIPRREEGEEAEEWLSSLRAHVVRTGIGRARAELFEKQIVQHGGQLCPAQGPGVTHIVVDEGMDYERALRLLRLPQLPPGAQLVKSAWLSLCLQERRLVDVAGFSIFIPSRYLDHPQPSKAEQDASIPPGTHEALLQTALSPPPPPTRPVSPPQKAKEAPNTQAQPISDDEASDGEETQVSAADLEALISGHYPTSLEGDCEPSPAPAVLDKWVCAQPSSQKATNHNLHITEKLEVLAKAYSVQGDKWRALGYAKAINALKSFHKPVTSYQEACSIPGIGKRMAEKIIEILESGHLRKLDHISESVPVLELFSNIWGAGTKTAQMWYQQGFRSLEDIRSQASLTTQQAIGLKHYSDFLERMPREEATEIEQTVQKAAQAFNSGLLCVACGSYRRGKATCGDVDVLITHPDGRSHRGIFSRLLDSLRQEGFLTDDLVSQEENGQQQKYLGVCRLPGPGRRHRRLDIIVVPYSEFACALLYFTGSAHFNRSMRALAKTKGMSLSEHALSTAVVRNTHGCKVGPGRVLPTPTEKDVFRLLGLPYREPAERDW", "assay": "primer extension assay (Pol λ)", "assay_type": "biochemical", "settings": "10 μM", "experimental": "as §1, §2"}, "[1]": {"tested_on": "MEFs lacking Pol β (Pol β−/−)", "assay": "cell viability assay for MEFs lacking Pol β", "assay_type": "cell-based, mouse", "settings": "MMS alone", "procedure": "Mouse embryonic fibroblasts (Pol β1 WT, Pol β−/−, Pol λ WT, Pol λ−/−, Pol β−/λ−) were seeded at a density of ˜0.3×10^6 cells/well in 6-well dishes. […] Control wells were treated with an equal volume of vector (50% MeCN in H2O). Cells were washed with 1×PBS and fresh medium was added. Dishes were incubated for 5 days at 34° C. in a 10% CO2 incubator until untreated control cells were approximately 80% confluent. Cells (triplicate wells for each treatment concentration were counted by a cell lysis procedure (described previously), and the results were expressed as the surviving fraction of cells in drug-treated wells relative to control wells."}, "UWB1.289+BRCA1": {"tested_on": "UWB1.289+BRCA1", "assay": "clonogenic assay, BRCA1 complemented ovarian cancer cells", "assay_type": "cell-based"}, "MCF-7": {"tested_on": "MCF-7", "assay": "clonogenic assay, BRCA1 proficient breast cancer cells", "assay_type": "cell-based", "settings": "1 h", "experimental": "(§3) The medium was removed, and the cells were resuspended in fresh media (10 mL). […] The excess dye was removed by washing with water twice."}, "UWB1.289 (BRCA1−/−)": {"tested_on": "UWB1.289 (BRCA1−/−)", "assay": "clonogenic assay, BRCA1 deficient ovarian cancer cells", "assay_type": "cell-based", "settings": "1 μM", "experimental": "as §3\nUWB1.289 cells (6×106) were seeded with RPMI 1640/MEGM medium (10 mL) into a 100 mm plate prior to transfection so cells would be adherent and ˜80% confluent on the first day of transfection, which was determined by manual inspection. Transfection was completed as follows: • 1. Lipofectamine RNAiMAX (60 μL) was diluted in Opti-MEM reduced serum medium to 1 mL. • 2. In a separate tube, siRNA (either siNT or siPol β, 10 μM, 60 μL, […]) was diluted in Opti-MEM (500 μL). • 3. The Lipofectamine solution was split (2×500 μL aliquots) and mixed with either siNT or siPol β solution to form the lipid-RNA complex at 25° C. for 5 min. • 4. The RPMI 1640/MEGM medium was removed and replaced with Opti-MEM medium (9 mL). After 5 min incubation, the lipid-RNA solution (1 mL) was added to the cells. Cells were incubated at 37° C. in a 5% CO2 humidified incubator. The following day, steps 1-3 were repeated. and the resulting 2×500 μL solutions were added to the existing cells that had been incubating at 37° C., 5% CO2 for 24 h. Transfected cells were allowed to incubate for an additional 48 h at 37° C., 5% CO2 after the second addition of siRNA. […]"}, "MDA-MB-436": {"tested_on": "MDA-MB-436", "assay": "clonogenic assay, BRCA1 deficient breast cancer cells", "assay_type": "cell-based", "settings": "1 h", "experimental": "as §3"}}, "data": [{"smiles": "COc1cc(Cl)c(C=NOC2CC(n3cc(CNC(=O)c4cc5cccc(O)c5cc4O)c(=O)[nH]c3=O)OC2COP(=O)(O)OCC2CC(O)OC2O)c(Cl)c1O", "note": "(stereo not drawn) [Compound 2]", "values": [{"measurement": "IC50", "setting": "DNA polymerase β (Pol β)", "value": 400, "unit": "nM"}]}, {"smiles": "O=C(NC1CC(n2cc(CNC(=O)c3cc4cc(Br)ccc4c(Br)c3O)c(=O)[nH]c2=O)OC1COP(=O)(O)OCC1CC(O)OC1O)c1cc(-c2ccc(Cl)cc2)oc1C(F)(F)F", "note": "(stereo not drawn) [Compound 14]", "values": [{"measurement": "Pol η activity retained", "setting": "Pol η", "value": "approximately 50%"}, {"measurement": "Pol λ activity relative to untreated enzyme", "setting": "Pol λ", "value": "more than 25%"}]}, {"smiles": "COS(C)(=O)=O", "note": "[MMS, methyl methanesulfonate]", "values": [{"measurement": "toxicity compared with WT MEFs", "setting": "[1]", "value": "considerably more toxic"}]}, {"smiles": "O=C(c1cc(Cc2n[nH]c(=O)c3ccccc23)ccc1F)N1CCN(C(=O)C2CC2)CC1", "note": "[Olaparib]", "values": [{"measurement": "toxicity", "setting": "UWB1.289+BRCA1; 1 h treatment", "value": "modestly toxic"}, {"measurement": "cytotoxicity upon prolonged treatment, compared with pro-1", "setting": "UWB1.289+BRCA1; time course", "value": "more cytotoxic"}, {"measurement": "toxicity compared with pro-1", "setting": "MCF-7", "value": "more toxic"}, {"measurement": "cytotoxicity as a function of treatment time", "setting": "UWB1.289 (BRCA1−/−)", "value": "proportional to incubation time"}, {"measurement": "cell killing compared with pro-1", "setting": "MDA-MB-436", "value": "more effective at killing BRCA1−/− cells at a lower concentration"}]}]}
